Laboratory results: patent publication US20250223259A1, “PROTEASE INHIBITORS FOR TREATING OR PREVENTING CORONAVIRUS INFECTION” (Merck Sharp & Dohme LLC, priority 2022, published 2025)

Biological target: SARS2 coronavirus 3CL protease (Severe acute respiratory syndrome coronavirus 2 (2019-nCoV) (SARS-CoV-2), UniProt P0DTD1)
Assay: SARS2 Coronavirus 3CL Protease Assay (FRET)
Format: biochemical
Conditions: SARS2 3CLPro FRET assay; 5 nM enzyme, 30 min pre-incubation with compound, 15 uM peptide substrate, 4 h room temperature

Structure (SMILES) | IC50 [nM]
COC(=O)N[C@H](C(=O)N1CC2(CCC2)CC1C(=O)N[C@@H](CCC(C)(F)F)C(=O)C(=O)NC1CC1)C(C)(C)C (single isomer, unassigned) [Example 47, Methyl ((S)-1-(R or S)-7-(((S)-1-(cyclopropylamino)-6,6-difluoro-1,2-dioxoheptan-3-yl)carbamoyl)-6-azaspiro[3.4]octan-6-yl)-3,3-dimethyl-1-oxobutan-2-yl)carbamate] | 38
CNC(=O)C(=O)[C@H](CCC(C)(F)F)NC(=O)[C@@H]1[C@H]2CC(C)(C)O[C@H]2CN1C(=O)[C@@H](NC(=O)OC)C(C)(C)C [Example 86, methyl ((S)-1-((3aR,4S,6aR)-4-(((S)-6,6-difluoro-1-(methylamino)-1,2-dioxoheptan-3-yl)carbamoyl)-2,2-dimethylhexahydro-5H-furo[2,3-c]pyrrol-5-yl)-3,3-dimethyl-1-oxobutan-2-yl)carbamate] | 20
CNC(=O)C(=O)[C@H](CCC(C)(F)F)NC(=O)[C@@H]1[C@H]2CCC[C@H]2CN1C(=O)[C@@H](NC(=O)OCC(F)F)C(C)(C)C [Example 121, 2,2-difluoroethyl ((S)-1-((1S,3aR,6aS)-1-(((S)-6,6-difluoro-1-(methylamino)-1,2-dioxoheptan-3-yl)carbamoyl)hexahydrocyclopenta[c]pyrrol-2(1H)-yl)-3,3-dimethyl-1-oxobutan-2-yl)carbamate] | 15
COC(=O)N[C@H](C(=O)N1CC2(CCOCC2)CC1C(=O)N[C@@H](CCC(C)(F)F)C(=O)C(=O)NC1CC1)C(C)(C)C (single isomer, unassigned) [Example 28, Methyl ((S)-1-((R or S)-(3-(((S)-1-(cyclopropylamino)-6,6-difluoro-1,2-dioxoheptan-3-yl)carbamoyl)-8-oxa-2-azaspiro[4.5]decan-2-yl)-3,3-dimethyl-1-oxobutan-2-yl)carbamate] | 297
CNC(=O)C(=O)[C@H](CCC(C)(F)F)NC(=O)[C@@H]1[C@H]2CCC[C@H]2CN1C(=O)[C@@H](NC(=O)OC)C12CC(C(F)(F)F)(C1)C2 [Example 114, methyl ((S)-2-((1S,3aR,6aS)-1-(((S)-6,6-difluoro-1-(methylamino)-1,2-dioxoheptan-3-yl)carbamoyl)hexahydrocyclopenta[c]pyrrol-2(1H)-yl)-2-oxo-1-(3-(trifluoromethyl)bicyclo[1.1 1]pentan-1-yl)ethyl)carbamate] | 27
COC(=O)N[C@H](C(=O)N1CC2(CCCCC2)C[C@H]1C(=O)N[C@@H](CCC(C)(F)F)C(=O)C(=O)NC1CC1)C(F)(F)F [Example 46, Methyl ((R)-3-((S)-3-(((S)-1-(cyclopropylamino)-6,6-difluoro-1,2-dioxoheptan-3-yl)carbamoyl)-2-azaspiro[4.5]decan-2-yl)-1,1,1-trifluoro-3-oxopropan-2-yl)carbamate] | 34
COC(=O)N[C@H](C(=O)N1CCC(OC(F)(F)F)CC1C(=O)N[C@@H](CCC(C)(F)F)C(=O)C(=O)NC1CC1)C(C)(C)C (single isomer, unassigned) [Example 112, methyl ((S)-1-((2S,4S or 2R,4R)-2-(((S)-1-(cyclopropylamino)-6,6-difluoro-1,2-dioxoheptan-3-yl)carbamoyl)-4-(trifluoromethoxy)piperidin-1-yl)-3,3-dimethyl-1-oxobutan-2-yl)carbamate] | 146
CNC(=O)C(=O)[C@H](CCC(C)(F)F)NC(=O)[C@@H]1CC[C@H](C)N1C(=O)[C@@H](NC(=O)OC)C(C)(C)C [Example 85, methyl ((S)-1-((2S,5S)-2-(((S)-6,6-difluoro-1-(methylamino)-1,2-dioxoheptan-3-yl)carbamoyl)-5-methylpyrrolidin-1-yl)-3,3-dimethyl-1-oxobutan-2-yl)carbamate] | 257
CNC(=O)C(=O)[C@H](CCC(C)(F)F)NC(=O)[C@@H]1CC2(CN1C(=O)[C@@H](NC(=O)OC)C(C)(C)C)CC(F)(F)C2 [Example 53, Methyl ((S)-1-((S)-7-(((S)-6,6-difluoro-1-(methylamino)-1,2-dioxoheptan-3-yl)carbamoyl)-2,2-difluoro-6-azaspiro[3.4]octan-6-yl)-3,3-dimethyl-1-oxobutan-2-yl)carbamate] | 196
COC(=O)N[C@H](C(=O)N1CCCCC1C(=O)N[C@@H](CCC(C)(F)F)C(=O)C(=O)NC1CC1)C(C)(C)C (single isomer, unassigned) [Example 55, Methyl ((S)-1-((S or R)-2-(((S)-1-(cyclopropylamino)-6,6-difluoro-1,2-dioxoheptan-3-yl)carbamoyl)piperidin-1-yl)-3,3-dimethyl-1-oxobutan-2-yl)carbamate: methyl ((S)-1-((R or S)-2-(((S)-1-(cyclopropylamino)-6,6-difluoro-1,2-dioxoheptan-3-yl)carbamoyl)piperidin-1-yl)-3,3-dimethyl-1-oxobutan-2-yl)carbamate] | 239
COC(=O)N[C@H](C(=O)N1C[C@@H]2CCCC[C@@H]2C[C@H]1C(=O)N[C@@H](CCC(C)(F)F)C(=O)C(=O)NC1CC1)C(C)(C)C [Example 26, Methyl ((S)-1-((3S,4aR,8aR)-3-(((S)-1-(cyclopropylamino)-6,6-difluoro-1,2-dioxoheptan-3-yl)carbamoyl)octahydroiso-quinolin-2(1H)-yl)-3,3-dimethyl-1-oxobutan-2-yl)carbamate] | 22
CC(F)(F)CC[C@H](NC(=O)[C@@H]1CC2(CCCCC2)CN1C(=O)[C@@H](NC(=O)OC1CCCC1)C(C)(C)C)C(=O)C(=O)NC1CC1 [Example 5, Cyclopentyl ((S)-1-((S)-3-(((S)-1-(cyclopropylamino)-6,6-difluoro-1,2-dioxoheptan-3-yl)carbamoyl)-2-azaspiro[4.5]decan-2-yl)-3,3-dimethyl-1-oxobutan-2-yl)carbamate] | 81
CC(F)(F)CC[C@H](NC(=O)[C@@H]1[C@@H]2[C@H](CN1C(=O)[C@@H](NC(=O)OCc1ccccc1)C1CCCCC1)C21CCCCC1)C(=O)C(=O)NC1CC1 [Example 66, Benzyl ((S)-1-cyclohexyl-2-((1R,2S,5S)-2-(((S)-1-(cyclopropylamino)-6,6-difluoro-1,2-dioxoheptan-3-yl)carbamoyl)-3-azaspiro[bicyclo[3.1.0]hexane-6,1'-cyclohexan]-3-yl)-2-oxoethyl)carbamate] | 9.9
COC(=O)N[C@H](C(=O)N1CC(C)(C)CCC1C(=O)N[C@@H](CCC(C)(F)F)C(=O)C(=O)NC1CC1)C(C)(C)C (single isomer, unassigned) [Example 52, Methyl ((S)-1-(R or S)-2-(((S)-1-(cyclopropylamino)-6,6-difluoro-1,2-dioxoheptan-3-yl)carbamoyl)-5,5-dimethylpiperidin-1-yl)-3,3-dimethyl-1-oxobutan-2-yl)carbamate] | 144
CNC(=O)C(=O)[C@H](CCC(C)(F)F)NC(=O)[C@@H]1CC2(CCN1C(=O)[C@@H](NC(=O)OC)C(C)(C)C)CC2 [Example 21, Methyl ((S)-1-((S)-5-(((S)-6,6-difluoro-1-(methylamino)-1,2-dioxoheptan-3-yl)carbamoyl)-6-azaspiro[2.5]octan-6-yl)-3,3-dimethyl-1-oxobutan-2-yl)carbamate] | 6.5
COC(=O)N[C@H](C(=O)N1C[C@H](C(F)(F)F)C[C@H]1C(=O)N[C@@H](CCC(C)(F)F)C(=O)C(=O)NC1CC1)C(C)(C)F [Example 71, Methyl ((R)-1-((2S,4R)-2-(((S)-1-(cyclopropylamino)-6,6-difluoro-1,2-dioxoheptan-3-yl)carbamoyl)-4-(trifluoromethyl)pyrrolidin-1-yl)-3-fluoro-3-methyl-1-oxobutan-2-yl)carbamate] | 43
COC(=O)N[C@H](C(=O)N1CCCC(C2CC2)C1C(=O)N[C@@H](CCC(C)(F)F)C(=O)C(=O)NC1CC1)C(C)(C)C (single isomer, unassigned) [Example 90, methyl ((S)-1-((2S,3R or 2R,3S)-3-cyclopropyl-2-(((S)-1-(cyclopropylamino)-6,6-difluoro-1,2-dioxoheptan-3-yl)carbamoyl)piperidin-1-yl)-3,3-dimethyl-1-oxobutan-2-yl)carbamate] | 16
COC(=O)N[C@H](C(=O)N1CC[C@@H](C(F)(F)F)C[C@H]1C(=O)N[C@@H](CCC(C)(F)F)C(=O)C(=O)NC1CC1)C(C)(C)C [Example 61, Methyl ((S)-1-((2S,4R)-2-(((S)-1-(cyclopropylamino)-6,6-difluoro-1,2-dioxoheptan-3-yl)carbamoyl)-4-(trifluoromethyl)piperidin-1-yl)-3,3-dimethyl-1-oxobutan-2-yl)carbamate] | 16
CNC(=O)C(=O)[C@H](CCC(C)(F)F)NC(=O)[C@@H]1CC2(CN1C(=O)[C@@H](NC(=O)OC)C(C)(C)C)CC2(F)F (single isomer, unassigned) [Example 93, methyl ((S)-1-((3(S or R),6S)-6-(((S)-6,6-difluoro-1-(methylamino)-1,2-dioxoheptan-3-yl)carbamoyl)-1,1-difluoro-5-azaspiro[2.4]heptan-5-yl)-3,3-dimethyl-1-oxobutan-2-yl)carbamate] | 28
COC(=O)N[C@H](C(=O)N1CC(C2CCOC2)C[C@H]1C(=O)N[C@@H](CCC(C)(F)F)C(=O)C(=O)NC1CC1)C(C)(C)C (single isomer, unassigned) [Example 54, Methyl ((S)-1-((2S,4(R or S))-2-(((S)-1-(cyclopropylamino)-6,6-difluoro-1,2-dioxoheptan-3-yl)carbamoyl)-4-((R or S)-tetrahydrofuran-3-yl)pyrrolidin-1-yl)-3,3-dimethyl-1-oxobutan-2-yl)carbamate] | 201
COC(=O)N[C@H](C(=O)N1CCC2(CCC2)CC1C(=O)N[C@@H](CCC(C)(F)F)C(=O)C(=O)NC1CC1)C(C)(C)C (single isomer, unassigned) [Example 41, Methyl ((S)-1-((R or S)-(6-(((S)-1-(cyclopropylamino)-6,6-difluoro-1,2-dioxoheptan-3-yl)carbamoyl)-7-azaspiro[3.5]nonan-7-yl)-3,3-dimethyl-1-oxobutan-2-yl)carbamate] | 13
